{"source": "PubChem BioAssay AID248", "about": "(DTP/NCI, 2004)", "system": "L1210 leukemia ip in BDF1 mice, survival T/C", "assay": "NCI In Vivo Anticancer Drug Screen. Data for tumor model L1210 Leukemia (intraperitoneal) in B6D2F1 (BDF1) mice", "conditions": "higher = longer survival", "outline": "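In this screen, tumor-bearing mice given compound are compared to those given vehicle, and their survival values are reported as a treated-to-control quotient.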", "key": {"[1]": {"conditions": "endpoint: mean survival time, dose: 100.0 mg/kg/injection, schedule: Q01DX009 (ip), vehicle: Klucel (hydroxypropylcellulose) (HPC)"}, "[2]": {"conditions": "endpoint: mean survival time, dose: 200.0 mg/kg/injection, schedule: Q01DX009 (ip), vehicle: Klucel (hydroxypropylcellulose) (HPC)"}, "[3]": {"conditions": "endpoint: mean survival time, dose: 400.0 mg/kg/injection, schedule: Q01DX009 (ip), vehicle: Klucel (hydroxypropylcellulose) (HPC)"}, "[4]": {"conditions": "endpoint: mean survival time, dose: 100.0 mg/kg/injection, schedule: Q04DX003 (ip), vehicle: Klucel (hydroxypropylcellulose) (HPC)"}, "[5]": {"conditions": "endpoint: mean survival time, dose: 200.0 mg/kg/injection, schedule: Q04DX003 (ip), vehicle: Klucel (hydroxypropylcellulose) (HPC)"}, "[6]": {"conditions": "endpoint: mean survival time, dose: 400.0 mg/kg/injection, schedule: Q04DX003 (ip), vehicle: Klucel (hydroxypropylcellulose) (HPC)"}, "[7]": {"conditions": "endpoint: mean survival time, dose: 50.0 mg/kg/injection, schedule: Q01DX009 (ip), vehicle: Klucel (hydroxypropylcellulose) (HPC)"}, "[8]": {"conditions": "endpoint: mean survival time, dose: 100.0 mg/kg/injection, schedule: Q01DX001 (ip), vehicle: Klucel (hydroxypropylcellulose) (HPC)"}, "[9]": {"conditions": "endpoint: mean survival time, dose: 200.0 mg/kg/injection, schedule: Q01DX001 (ip), vehicle: Klucel (hydroxypropylcellulose) (HPC)"}, "[10]": {"conditions": "endpoint: mean survival time, dose: 400.0 mg/kg/injection, schedule: Q01DX001 (ip), vehicle: Klucel (hydroxypropylcellulose) (HPC)"}, "[11]": {"conditions": "endpoint: mean survival time, dose: 100.0 mg/kg/injection, schedule: Q01DX009 (ip), vehicle: saline with Tween-80"}, "[12]": {"conditions": "endpoint: mean survival time, dose: 200.0 mg/kg/injection, schedule: Q01DX009 (ip), vehicle: saline with Tween-80"}, "[13]": {"conditions": "endpoint: mean survival time, dose: 400.0 mg/kg/injection, schedule: Q01DX009 (ip), vehicle: saline with Tween-80"}}, "note": "“And” between values parts separate entries of the source, which are not always exact repeats. Equal entries are not always repeated. Toxic doses and inconclusive results are not listed."}
{"smiles": "CN(Cc1cnc2nc(N)nc(N)c2n1)c1ccc(C(=O)NC(CCC(=O)O)C(=O)O)cc1F", "note": "(stereo not given)", "values": [{"measurement": "T/C", "setting": "endpoint: median survival time, dose: 1.25 mg/kg/injection, schedule: Q01DX009 (ip), vehicle: other", "value": "150 % of control"}, {"measurement": "T/C", "setting": "endpoint: median survival time, dose: 2.5 mg/kg/injection, schedule: Q01DX009 (ip), vehicle: other", "value": "161 % of control"}]}
{"smiles": "c1ccc2c(c1)CCc1ccccc1CC2", "values": [{"measurement": "T/C", "setting": "[1]", "value": "93 % of control"}, {"measurement": "T/C", "setting": "[2]", "value": "96 % of control"}, {"measurement": "T/C", "setting": "[3]", "value": "90 % of control"}]}
{"smiles": "Nc1nc(-c2ccccc2)c(CC(=O)O)s1", "values": [{"measurement": "T/C", "setting": "[4]", "value": "93 % of control"}, {"measurement": "T/C", "setting": "[5]", "value": "100 % of control"}, {"measurement": "T/C", "setting": "[6]", "value": "96 % of control"}]}
{"smiles": "N#CCC(=O)c1ccccc1", "values": [{"measurement": "T/C", "setting": "endpoint: mean survival time, dose: 12.5 mg/kg/injection, schedule: Q01DX009 (ip), vehicle: Klucel (hydroxypropylcellulose) (HPC)", "value": "113 % of control"}, {"measurement": "T/C", "setting": "endpoint: mean survival time, dose: 18.75 mg/kg/injection, schedule: Q04DX003 (ip), vehicle: gum acacia", "value": "106 % of control"}, {"measurement": "T/C", "setting": "endpoint: mean survival time, dose: 25.0 mg/kg/injection, schedule: Q01DX009 (ip), vehicle: Klucel (hydroxypropylcellulose) (HPC)", "value": "102 % of control"}, {"measurement": "T/C", "setting": "endpoint: mean survival time, dose: 37.5 mg/kg/injection, schedule: Q04DX003 (ip), vehicle: gum acacia", "value": "108 % of control"}, {"measurement": "T/C", "setting": "[7]", "value": "104 % of control"}]}
{"smiles": "Cc1nc(N)[nH]c(=O)c1CCCNc1cccc(C(F)(F)F)c1", "values": [{"measurement": "T/C", "setting": "[8]", "value": "92 % of control"}, {"measurement": "T/C", "setting": "[9]", "value": "92 % of control"}, {"measurement": "T/C", "setting": "[10]", "value": "97 % of control"}]}
{"smiles": "CCCCc1c(N)nc(N)nc1-c1ccccc1", "values": [{"measurement": "T/C", "setting": "[8]", "value": "112 % of control"}, {"measurement": "T/C", "setting": "[9]", "value": "105 % of control"}, {"measurement": "T/C", "setting": "[10]", "value": "94 % of control"}]}
{"smiles": "CCCCCCCCCC1=NN(C2=NCCCC2)C(=O)C1", "values": [{"measurement": "T/C", "setting": "[4]", "value": "100 % of control"}, {"measurement": "T/C", "setting": "[5]", "value": "101 % of control"}, {"measurement": "T/C", "setting": "[6]", "value": "95 % of control"}]}
{"smiles": "Cc1ccc(OCCOc2ccc(NC(=O)CC(=O)c3cccc([N+](=O)[O-])c3)cc2)cc1", "values": [{"measurement": "T/C", "setting": "[1]", "value": "100 % of control"}, {"measurement": "T/C", "setting": "[4]", "value": "95 % of control"}, {"measurement": "T/C", "setting": "[2]", "value": "103 % of control"}, {"measurement": "T/C", "setting": "[5]", "value": "98 % of control"}, {"measurement": "T/C", "setting": "[3]", "value": "97 % of control"}, {"measurement": "T/C", "setting": "[6]", "value": "97 % of control"}]}
{"smiles": "Cn1c(=O)n2n(c1=O)C1C=CC2C2C(Br)C(Br)C21", "note": "(stereo not given)", "values": [{"measurement": "T/C", "setting": "[11]", "value": "97 % of control"}, {"measurement": "T/C", "setting": "endpoint: mean survival time, dose: 100.0 mg/kg/injection, schedule: Q04DX003 (ip), vehicle: saline with Tween-80", "value": "102 % of control"}, {"measurement": "T/C", "setting": "[12]", "value": "101 % of control"}, {"measurement": "T/C", "setting": "endpoint: mean survival time, dose: 200.0 mg/kg/injection, schedule: Q04DX003 (ip), vehicle: saline with Tween-80", "value": "94 % of control"}, {"measurement": "T/C", "setting": "[13]", "value": "103 % of control"}, {"measurement": "T/C", "setting": "endpoint: mean survival time, dose: 400.0 mg/kg/injection, schedule: Q04DX003 (ip), vehicle: saline with Tween-80", "value": "105 % of control"}]}
{"smiles": "FC(F)(F)c1nc2nc(Cl)c(Cl)nc2n1CCCN1CCOCC1", "values": [{"measurement": "T/C", "setting": "[11]", "value": "117 % of control"}, {"measurement": "T/C", "setting": "[12]", "value": "107 % of control"}, {"measurement": "T/C", "setting": "[13]", "value": "103 % of control"}]}
{"smiles": "OCC1(c2ccccc2)OC1c1ccccc1", "note": "(stereo not given)", "values": [{"measurement": "T/C", "setting": "[7]", "value": "95 % of control"}, {"measurement": "T/C", "setting": "endpoint: mean survival time, dose: 75.0 mg/kg/injection, schedule: Q04DX003 (ip), vehicle: Klucel (hydroxypropylcellulose) (HPC)", "value": "102 % of control"}, {"measurement": "T/C", "setting": "[1]", "value": "96 % of control"}, {"measurement": "T/C", "setting": "endpoint: mean survival time, dose: 150.0 mg/kg/injection, schedule: Q04DX003 (ip), vehicle: Klucel (hydroxypropylcellulose) (HPC)", "value": "102 % of control"}, {"measurement": "T/C", "setting": "[2]", "value": "96 % of control"}, {"measurement": "T/C", "setting": "endpoint: mean survival time, dose: 300.0 mg/kg/injection, schedule: Q04DX003 (ip), vehicle: Klucel (hydroxypropylcellulose) (HPC)", "value": "107 % of control"}]}
{"smiles": "c1ccc2c(OCC3CO3)cccc2c1", "note": "(stereo not given)", "values": [{"measurement": "T/C", "setting": "endpoint: mean survival time, dose: 50.0 mg/kg/injection, schedule: Q01DX001 (ip), vehicle: other", "value": "94 % of control"}, {"measurement": "T/C", "setting": "endpoint: mean survival time, dose: 100.0 mg/kg/injection, schedule: Q01DX001 (ip), vehicle: other", "value": "94 % of control"}, {"measurement": "T/C", "setting": "endpoint: mean survival time, dose: 200.0 mg/kg/injection, schedule: Q01DX001 (ip), vehicle: other", "value": "94 % of control"}, {"measurement": "T/C", "setting": "endpoint: mean survival time, dose: 400.0 mg/kg/injection, schedule: Q01DX001 (ip), vehicle: other", "value": "111 % of control"}]}
{"smiles": "CCCCCCCCN1CCC(c2cccc(O)c2)C(C(=O)CC)C1", "note": "(stereo not given)", "values": [{"measurement": "T/C", "setting": "endpoint: mean survival time, dose: 6.0 mg/kg/injection, schedule: Q01DX009 (ip), vehicle: Klucel (hydroxypropylcellulose) (HPC)", "value": "94 % of control and 102 % of control"}, {"measurement": "T/C", "setting": "endpoint: mean survival time, dose: 12.0 mg/kg/injection, schedule: Q01DX009 (ip), vehicle: Klucel (hydroxypropylcellulose) (HPC)", "value": "94 % of control"}, {"measurement": "T/C", "setting": "[7]", "value": "87 % of control"}]}
